Literature values, collected in patent US20100028276A1, “SUNSCREEN COMPOSITIONS” (priority 2007, published 2010).

Tests used:
[1] = uterine wet weight, cell height, cell proliferation assays

SMILES | effect on growth of cancer cells (cancer cells) | estrogenicity [1]
CCCCC(CC)COC(=O)c1ccc(N(C)C)cc1 (stereo not drawn) [octyl-dimethyl-PABA] | made cancer cells grow more rapidly | 
COc1ccc(C(=O)c2ccccc2)c(O)c1 [benzophenone-s, Benzophenone-3] | made cancer cells grow more rapidly | highly estrogenic
CC1CC(OC(=O)c2ccccc2O)CC(C)(C)C1 (stereo not drawn) [homosalate] | made cancer cells grow more rapidly | 
Cc1ccc(C=C2C(=O)C3(C)CCC2C3(C)C)cc1 (stereo not drawn) [4-methyl-benzylidene camphor, 3-(4-methylbenxylidene) camphor] | made cancer cells grow more rapidly | highly estrogenic
